From ChEMBL document CHEMBL1201862, “PubChem BioAssay data set” (2004)
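Step 1: Grow cells in 96-well plates. Step 2: Expose to compound for 48 hours at 5 concentrations. Step 3: Interpolate endpoints linearly; if unreached, use highest concentration. At the GI50, growth is halved.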 The source made the active and inactive calls. No stated cut-off is given here; in the data, active = GI50 up to about 1.1 µM and inactive = higher.

Key:
Assay in all cases: NCI tumour cell line growth inhibition, 48 h
786-0 = system: 786-0
A498 = system: A498
A549 = system: A549
ACHN = system: ACHN
BT-549 = system: BT-549
CAKI-1 = system: CAKI-1
COLO 205 = system: COLO 205
DU-145 = system: DU-145
EKVX = system: EKVX
HCC 2998 = system: HCC 2998
HCT-116 = system: HCT-116
HCT-15 = system: HCT-15
HL-60 = system: HL-60
HOP-62 = system: HOP-62
HOP-92 = system: HOP-92
HT-29 = system: HT-29
Hs-578T = system: Hs-578T
IGROV-1 = system: IGROV-1
K562 = system: K562
KM12 = system: KM12
LOX IMVI = system: LOX IMVI
M14 = system: M14
MCF7 = system: MCF7
MDA-MB-231 = system: MDA-MB-231
MDA-MB-435 = system: MDA-MB-435
MDA-N = system: MDA-N
MOLT-4 = system: MOLT-4
NCI-H226 = system: NCI-H226
NCI-H460 = system: NCI-H460
NCI-H522 = system: NCI-H522
NCI/ADR-RES = system: NCI/ADR-RES
OVCAR-3 = system: OVCAR-3
OVCAR-4 = system: OVCAR-4
OVCAR-5 = system: OVCAR-5
OVCAR-8 = system: OVCAR-8
PC-3 = system: PC-3
RPMI-8226 = system: RPMI-8226
SF-268 = system: SF-268
SF-295 = system: SF-295
SF-539 = system: SF-539
SK-MEL-28 = system: SK-MEL-28
SK-MEL-2 = system: SK-MEL-2
SK-MEL-5 = system: SK-MEL-5
SK-OV-3 = system: SK-OV-3
SN12C = system: SN12C
SNB-19 = system: SNB-19
SNB-75 = system: SNB-75
SR = system: SR
SW-620 = system: SW-620
T47D = system: T47D
TK-10 = system: TK-10
U-251 = system: U-251
UACC-257 = system: UACC-257
UACC-62 = system: UACC-62
UO-31 = system: UO-31
CCRF-CEM = system: CCRF-CEM
Malme-3M = system: Malme-3M
NCI-H23 = system: NCI-H23
RXF 393 = system: RXF 393

SMILES: COC1OC(=O)C(OC)C(OC)C1OC (stereo unspecified)
- GI50 (786-0): > 100 µM (inactive)
- GI50 (A498): > 100 µM (inactive)
- GI50 (A549): > 100 µM (inactive)
- GI50 (ACHN): > 100 µM (inactive)
- GI50 (BT-549): 40.5 µM (inactive)
- GI50 (CAKI-1): > 100 µM (inactive)
- GI50 (COLO 205): > 100 µM (inactive)
- GI50 (DU-145): > 100 µM (inactive)
- GI50 (EKVX): > 100 µM (inactive)
- GI50 (HCC 2998): > 100 µM (inactive)
- GI50 (HCT-116): > 100 µM (inactive)
- GI50 (HCT-15): > 100 µM
- GI50 (HL-60): > 100 µM (inactive)
- GI50 (HOP-62): > 100 µM (inactive)
- GI50 (HOP-92): > 100 µM (inactive)
- GI50 (HT-29): > 100 µM (inactive)
- GI50 (Hs-578T): > 100 µM (inactive)
- GI50 (IGROV-1): > 100 µM (inactive)
- GI50 (K562): > 100 µM (inactive)
- GI50 (KM12): > 100 µM (inactive)
- GI50 (LOX IMVI): > 100 µM (inactive)
- GI50 (M14): > 100 µM (inactive)
- GI50 (MCF7): > 100 µM (inactive)
- GI50 (MDA-MB-231): > 100 µM (inactive)
- GI50 (MDA-MB-435): > 100 µM (inactive)
- GI50 (MDA-N): > 100 µM (inactive)
- GI50 (MOLT-4): > 100 µM (inactive)
- GI50 (NCI-H226): > 100 µM (inactive)
- GI50 (NCI-H460): > 100 µM (inactive)
- GI50 (NCI-H522): > 100 µM (inactive)
- GI50 (NCI/ADR-RES): > 100 µM (inactive)
- GI50 (OVCAR-3): > 100 µM (inactive)
- GI50 (OVCAR-4): > 100 µM (inactive)
- GI50 (OVCAR-5): > 100 µM (inactive)
- GI50 (OVCAR-8): 88.3 µM (inactive)
- GI50 (PC-3): > 100 µM (inactive)
- GI50 (RPMI-8226): > 100 µM (inactive)
- GI50 (SF-268): > 100 µM (inactive)
- GI50 (SF-295): > 100 µM (inactive)
- GI50 (SF-539): > 100 µM (inactive)
- GI50 (SK-MEL-28): > 100 µM (inactive)
- GI50 (SK-MEL-2): > 100 µM (inactive)
- GI50 (SK-MEL-5): > 100 µM (inactive)
- GI50 (SK-OV-3): > 100 µM (inactive)
- GI50 (SN12C): > 100 µM (inactive)
- GI50 (SNB-19): > 100 µM (inactive)
- GI50 (SNB-75): > 100 µM (inactive)
- GI50 (SR): > 100 µM (inactive)
- GI50 (SW-620): > 100 µM (inactive)
- GI50 (T47D): > 100 µM (inactive)
- GI50 (TK-10): > 100 µM (inactive)
- GI50 (U-251): > 100 µM (inactive)
- GI50 (UACC-257): > 100 µM (inactive)
- GI50 (UACC-62): > 100 µM (inactive)
- GI50 (UO-31): > 100 µM (inactive)

SMILES: COC(=O)c1c(O)ccc2c1c1c(n2Cc2ccc(Cl)cc2Cl)C(=O)c2ccccc2C1
- GI50 (786-0): 74.5 µM (inactive)
- GI50 (A498): > 100 µM (inactive)
- GI50 (A549): 41.3 µM (inactive)
- GI50 (BT-549): 75.9 µM (inactive)
- GI50 (CCRF-CEM): 23.2 µM (inactive)
- GI50 (COLO 205): 45.7 µM (inactive)
- GI50 (DU-145): > 100 µM (inactive)
- GI50 (HCT-116): 87.9 µM (inactive)
- GI50 (HCT-15): 42.7 µM
- GI50 (HL-60): > 100 µM (inactive)
- GI50 (HOP-62): > 100 µM (inactive)
- GI50 (HT-29): 79.6 µM (inactive)
- GI50 (Hs-578T): 93.8 µM (inactive)
- GI50 (IGROV-1): 50.8 µM (inactive)
- GI50 (K562): 52.1 µM (inactive)
- GI50 (KM12): 22 µM (inactive)
- GI50 (LOX IMVI): 27 µM (inactive)
- GI50 (M14): 89.1 µM (inactive)
- GI50 (MCF7): 26.8 µM (inactive)
- GI50 (MDA-MB-231): 69.7 µM (inactive)
- GI50 (MDA-MB-435): 45.1 µM (inactive)
- GI50 (MDA-N): 52.8 µM (inactive)
- GI50 (MOLT-4): 39.1 µM (inactive)
- GI50 (Malme-3M): 97.7 µM (inactive)
- GI50 (NCI-H226): 27.6 µM (inactive)
- GI50 (NCI-H23): 60 µM (inactive)
- GI50 (NCI-H460): 33.3 µM (inactive)
- GI50 (NCI/ADR-RES): 34 µM (inactive)
- GI50 (OVCAR-3): 49.2 µM (inactive)
- GI50 (OVCAR-4): 27.1 µM (inactive)
- GI50 (OVCAR-8): 37.8 µM (inactive)
- GI50 (PC-3): 24.1 µM (inactive)
- GI50 (RPMI-8226): 19.7 µM (inactive)
- GI50 (RXF 393): 31 µM (inactive)
- GI50 (SF-268): 32.5 µM (inactive)
- GI50 (SF-539): 54.5 µM (inactive)
- GI50 (SK-MEL-28): 45.2 µM (inactive)
- GI50 (SK-MEL-2): 60.4 µM (inactive)
- GI50 (SK-MEL-5): 89.5 µM (inactive)
- GI50 (SK-OV-3): 47.9 µM (inactive)
- GI50 (SN12C): 23.1 µM (inactive)
- GI50 (SNB-19): 61.7 µM (inactive)
- GI50 (SNB-75): 20 µM (inactive)
- GI50 (SR): 36.3 µM (inactive)
- GI50 (SW-620): 57 µM (inactive)
- GI50 (T47D): 40.6 µM (inactive)
- GI50 (TK-10): > 100 µM (inactive)
- GI50 (U-251): 38 µM (inactive)
- GI50 (UACC-257): 42.2 µM (inactive)
- GI50 (UACC-62): > 100 µM (inactive)
- GI50 (UO-31): 97.9 µM (inactive)
